Data on twelve compounds can be found in PubChem BioAssay (NCI).

Among the test systems are BT-549 breast; CAKI-1 renal; CCRF-CEM leukemia; EKVX NSCLC; HOP-62 NSCLC; HOP-92 NSCLC; MDA-MB-435; MOLT-4 leukemia; NCI-H226 lung; NCI-H23 lung; OVCAR-3 ovarian; PC-3 prostate; RXF 393 renal; SK-MEL-2 melanoma; SNB-75 CNS; TK-10 renal; HT29 colon; IGROV1 ovarian; MALME-3M melanoma; NCI-H522 lung.
Common to all, as to experiment: NCI-60 cell line screen, 48 h

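Grown in 96-well plates, cells were treated for 48 hours with each compound at five concentrations. Insufficient inhibition: endpoint recorded as highest concentration tested. The concentration for full growth arrest is given as TGI.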

For `CN1C(=O)C(=Cc2ccc(Br)cc2)C(=O)N(C)C1=O`, the TGI with BT-549 breast, in the test on CAKI-1 renal, in the test on CCRF-CEM leukemia, with EKVX NSCLC, with HOP-62 NSCLC and in the test on HOP-92 NSCLC was greater than 100 µM each time. For the same compound, the TGI in the test with MDA-MB-435, with MOLT-4 leukemia, in the test with NCI-H226 lung, in the test on NCI-H23 lung, in the test with OVCAR-3 ovarian and in the test with PC-3 prostate was greater than 100 µM throughout. Besides, the TGI in the test on RXF 393 renal, in the test with SK-MEL-2 melanoma, with SNB-75 CNS and in the test with TK-10 renal was greater than 100 µM throughout.

For `Cc1cn(CC(=S)NCCc2c[nH]c3ccccc23)c(=O)[nH]c1=O`, the TGI in the test on BT-549 breast, in the test on CCRF-CEM leukemia, in the test with EKVX NSCLC, in the test on HOP-62 NSCLC, in the test on HOP-92 NSCLC and with HT29 colon was greater than 100 µM each time. The TGI in the test with IGROV1 ovarian, with MALME-3M melanoma, in the test on MDA-MB-435, in the test on MOLT-4 leukemia, with NCI-H226 lung and in the test on NCI-H23 lung was greater than 100 µM throughout. For the same compound, the TGI in the test with OVCAR-3 ovarian, in the test on PC-3 prostate, with RXF 393 renal and with SK-MEL-2 melanoma was greater than 100 µM each time.

Take `CC(C)N(C(C)C)S(=O)(=O)CC12CCC(C/C1=N\O)C2` (stereo not drawn): the TGI with BT-549 breast, in the test with CAKI-1 renal, with CCRF-CEM leukemia, with EKVX NSCLC, in the test with HOP-62 NSCLC and in the test with HT29 colon was greater than 100 µM each time. Besides, the TGI in the test with IGROV1 ovarian, with MALME-3M melanoma, with MDA-MB-435, with MOLT-4 leukemia, with NCI-H226 lung and with NCI-H23 lung was greater than 100 µM each time. For the same compound, the TGI in the test on NCI-H522 lung, with OVCAR-3 ovarian, with PC-3 prostate, in the test with RXF 393 renal, in the test with SK-MEL-2 melanoma and in the test with SNB-75 CNS was greater than 100 µM throughout. For the same compound, the TGI in the test with TK-10 renal was greater than 100 µM.

Regarding `CC(=O)N1C(c2[nH]c3ccccc3c2Cc2ccccc2)CCN1c1ccccc1` (stereo not drawn), the TGI in the test on BT-549 breast, in the test on CAKI-1 renal, in the test with CCRF-CEM leukemia, with EKVX NSCLC, with HOP-62 NSCLC and in the test on HT29 colon was greater than 10 µM throughout. The TGI with IGROV1 ovarian, with MALME-3M melanoma, in the test with MDA-MB-435, in the test with MOLT-4 leukemia, in the test with NCI-H226 lung and in the test with NCI-H23 lung was greater than 10 µM each time. The TGI in the test with NCI-H522 lung, with OVCAR-3 ovarian, in the test on PC-3 prostate, with RXF 393 renal, with SK-MEL-2 melanoma and in the test with SNB-75 CNS was greater than 10 µM in each case. The compound also yielded a TGI in the test on TK-10 renal greater than 10 µM.

As for `Cc1cc(C)c(NS(=O)c2ccc(Cl)cc2)c(C)c1` (stereo not drawn), the TGI in the test with BT-549 breast, with CCRF-CEM leukemia, with EKVX NSCLC, in the test with HOP-62 NSCLC, in the test with HOP-92 NSCLC and with HT29 colon was greater than 100 µM throughout. Moreover, the TGI with MALME-3M melanoma, in the test on MDA-MB-435, with MOLT-4 leukemia, with NCI-H226 lung, with NCI-H23 lung and in the test with OVCAR-3 ovarian was greater than 100 µM in each case. For the same compound, the TGI in the test with PC-3 prostate, in the test with RXF 393 renal and in the test with TK-10 renal was greater than 100 µM throughout.

In the case of `Cc1cc(NS(=O)(=O)c2ccc(NO)cc2)no1`, the TGI is greater than 100 µM in the test on BT-549 breast; greater than 100 µM in the test on CAKI-1 renal; 44.7 µM in the test with CCRF-CEM leukemia; greater than 100 µM in the test on EKVX NSCLC; greater than 100 µM in the test on HOP-62 NSCLC; greater than 100 µM in the test on HOP-92 NSCLC. In addition, the TGI is greater than 100 µM in the test on HT29 colon; greater than 100 µM in the test on IGROV1 ovarian; greater than 100 µM in the test on MALME-3M melanoma; 41.4 µM with MDA-MB-435; greater than 100 µM with MOLT-4 leukemia; greater than 100 µM with NCI-H226 lung. Also, the TGI in the test with OVCAR-3 ovarian, in the test on PC-3 prostate, in the test on RXF 393 renal, in the test on SK-MEL-2 melanoma, in the test with SNB-75 CNS and in the test on TK-10 renal was greater than 100 µM throughout.

With `Cc1cc2c(cc1Cl)SC(NNCCO)=NS2(=O)=O`, the TGI in the test on BT-549 breast, with CAKI-1 renal, in the test on CCRF-CEM leukemia, with EKVX NSCLC, in the test with HOP-62 NSCLC and in the test with HOP-92 NSCLC was greater than 100 µM each time. For the same compound, the TGI with HT29 colon, in the test on IGROV1 ovarian, in the test with MDA-MB-435, with MOLT-4 leukemia, in the test on NCI-H226 lung and in the test with NCI-H23 lung was greater than 100 µM each time. Besides, the TGI with PC-3 prostate, in the test with RXF 393 renal, in the test on SK-MEL-2 melanoma, in the test with SNB-75 CNS and in the test on TK-10 renal was greater than 100 µM throughout.

`COc1cc2c(cc1NC(=O)c1ccccc1)c1c(n2S(=O)(=O)c2ccccc2)CCN(S(=O)(=O)c2ccccc2)C1`: the TGI with BT-549 breast, in the test on CCRF-CEM leukemia, with HOP-62 NSCLC, with HOP-92 NSCLC, in the test on HT29 colon and in the test on IGROV1 ovarian was greater than 100 µM in each case. For the same compound, the TGI in the test with MDA-MB-435, in the test with MOLT-4 leukemia, in the test on NCI-H226 lung, in the test with NCI-H23 lung, in the test with OVCAR-3 ovarian and with PC-3 prostate was greater than 100 µM each time. Besides, the TGI with RXF 393 renal, in the test with SK-MEL-2 melanoma and in the test on SNB-75 CNS was greater than 100 µM throughout.

`CC1(C)CC(=O)c2c(-c3ccc(Cl)cc3)c(C#N)c(=S)n(C3OC(CO)C(O)C(O)C3O)c2C1` (stereo not drawn): the TGI is greater than 100 µM in the test with BT-549 breast; greater than 100 µM in the test on CAKI-1 renal; greater than 100 µM with CCRF-CEM leukemia; greater than 100 µM in the test with HOP-62 NSCLC; 96.7 µM with HOP-92 NSCLC; greater than 100 µM with HT29 colon. Further, the TGI with IGROV1 ovarian was greater than 100 µM; in the test with MALME-3M melanoma, greater than 100 µM; in the test on MDA-MB-435, 80.8 µM; in the test with MOLT-4 leukemia, greater than 100 µM; in the test with NCI-H226 lung it was 73 µM; in the test on NCI-H23 lung, greater than 100 µM. Further, the TGI in the test on NCI-H522 lung was greater than 100 µM; in the test on OVCAR-3 ovarian, 90.7 µM; with PC-3 prostate, 52.1 µM; in the test on RXF 393 renal, greater than 100 µM; in the test on SK-MEL-2 melanoma it was 43.9 µM; with SNB-75 CNS, 98.4 µM. The compound also yielded a TGI with TK-10 renal greater than 100 µM.

As for `CC1=CC2(C)C=C[C@@H]1C(=O)[C@@]1(C)CC[C@@](O)(C(C)C)[C@H]1CC2`, the TGI with BT-549 breast was 60.7 µM; with CCRF-CEM leukemia, 53.4 µM; in the test on EKVX NSCLC it was 63.1 µM; with HOP-62 NSCLC it was 35.2 µM; in the test with HOP-92 NSCLC it was 28.2 µM; with HT29 colon, 32.6 µM. The TGI with IGROV1 ovarian came to 51.7 µM; in the test with MALME-3M melanoma, 36.2 µM; in the test with MDA-MB-435 it was 43.2 µM; in the test on MOLT-4 leukemia, 51.9 µM; in the test with NCI-H226 lung, 43.8 µM; with NCI-H23 lung, 50.4 µM. The TGI is 32.2 µM with OVCAR-3 ovarian; 51.9 µM with PC-3 prostate; 43.5 µM in the test with RXF 393 renal; 77 µM with SK-MEL-2 melanoma; 58.3 µM in the test with SNB-75 CNS; greater than 100 µM in the test on TK-10 renal.

Consider `O=C1CC(n2ccnc2)c2c(Cl)sc(Cl)c21` (stereo not drawn), for which the TGI in the test with BT-549 breast is 32.8 µM; in the test with CAKI-1 renal, 36.1 µM; with CCRF-CEM leukemia, greater than 22.6 µM; in the test with EKVX NSCLC it was 38.7 µM; in the test with HOP-62 NSCLC, 51.9 µM; in the test on HT29 colon, 43.6 µM. Moreover, the TGI in the test with IGROV1 ovarian was 26.6 µM; with MALME-3M melanoma, 36.1 µM; with MDA-MB-435, 49.6 µM; in the test with MOLT-4 leukemia, greater than 24 µM; in the test with NCI-H226 lung, 77.1 µM; in the test with NCI-H23 lung, 30.9 µM. In addition, the TGI with NCI-H522 lung amounted to 17.1 µM; in the test on OVCAR-3 ovarian, 30.3 µM; in the test on PC-3 prostate, 36.7 µM; in the test on RXF 393 renal, 33.9 µM; in the test with SK-MEL-2 melanoma, 54.9 µM; with SNB-75 CNS it was 52 µM. The same compound showed a TGI with TK-10 renal of 45.1 µM.

For `c1ccc2c(c1)nc1ccccn12`, the TGI in the test on BT-549 breast, in the test with CCRF-CEM leukemia, in the test with EKVX NSCLC, in the test with HOP-62 NSCLC, in the test on HOP-92 NSCLC and in the test with HT29 colon was greater than 100 µM each time. The TGI in the test on IGROV1 ovarian, in the test on MALME-3M melanoma, in the test with MDA-MB-435, in the test on MOLT-4 leukemia, in the test on NCI-H226 lung and in the test with NCI-H23 lung was greater than 100 µM throughout. For the same compound, the TGI in the test on OVCAR-3 ovarian, in the test with PC-3 prostate, in the test on RXF 393 renal, in the test with SNB-75 CNS and with TK-10 renal was greater than 100 µM each time.
